In ChEMBL document CHEMBL4145597, “BMS-986163, a Negative Allosteric Modulator of GluN2B with Potential Utility in Major Depressive Disorder” (ACS Med Chem Lett, 2018):

How the values were obtained:
Mus musculus [1] = assay: Ex vivo receptor occupancy at GluN2B receptor in CD-1 mouse forebrain membranes assessed as reduction in [3H]Ro 25-6981 receptor labeling at 0.1 to 1 mg/kg, iv incubated for 5 mins by topcount micro scintillation counting method; type: functional
[2] = Fraction unbound in rat plasma; type: ADME, cell-free
[3] = biological target: Glutamate receptor ionotropic, NMDA 2B (Homo sapiens, UniProt Q05586+Q13224); assay: Negative allosteric modulation of human GluN2B receptor expressed in Xenopus laevis oocytes assessed as inhibition of glutamate/glycine-induced channel current after 15 to 20 mins by two electrode voltage clamp based electrophysiology assay; type: cell-based
[4] = Dissociation constant, pKa of the compound by spectrophotometric method; type: physicochemical
Mus musculus [5] = assay: Ex vivo receptor occupancy at GluN2B receptor in CD-1 mouse forebrain membranes assessed as reduction in [3H]Ro 25-6981 receptor labeling administered iv incubated for 5 mins by topcount micro scintillation counting method; type: functional, organism-based; conditions: Membrane
[6] = Plasma concentration in CD-1 mouse at 1 mg/kg, iv; type: ADME, organism-based; conditions: in vivo
Mus musculus [7] = assay: Ex vivo receptor occupancy at GluN2B receptor in CD-1 mouse forebrain membranes assessed as reduction in [3H]Ro 25-6981 receptor labeling at 0.3 mg/kg, iv incubated for 5 mins by topcount micro scintillation counting method; type: functional
[8] = biological target: Voltage-gated inwardly rectifying potassium channel KCNH2 (Homo sapiens, UniProt Q12809); assay: Inhibition of human ERG expressed in HEK293 cells assessed as reduction in peak tail current after 2 to 5 mins by patch clamp based electrophysiology assay; type: cell-based
[9] = Plasma concentration in CD-1 mouse at 0.1 to 1 mg/kg, iv; type: ADME, organism-based; conditions: in vivo
[10] = Fraction unbound in mouse plasma; type: ADME, cell-free
Mus musculus [11] = assay: Ex vivo receptor occupancy at GluN2B receptor in CD-1 mouse forebrain membranes assessed as reduction in [3H]Ro 25-6981 receptor labeling at 1 mg/kg, iv incubated for 5 mins by topcount micro scintillation counting method; type: functional
[12] = biological target: Glutamate receptor ionotropic, NMDA 2B (Rattus norvegicus, UniProt Q00960); assay: Displacement of [3H]Ro 25-6981 from GluN2B receptor in Sprague-Dawley rat forebrain membranes incubated for 1 hr by topcount micro scintillation counting method; design: species or system Membrane
Mus musculus [13] = assay: Antidepressant activity in CD-1 mouse assessed as decrease in immobility time administered iv 15 mins prior to test measured for 6 mins observation by forced swim test; type: functional
[14] = Plasma concentration in CD-1 mouse at 0.3 mg/kg, iv; type: ADME, organism-based; conditions: in vivo
[15] = Fraction unbound in human plasma; type: ADME, cell-free
Mus musculus [16] = assay: Ex vivo receptor occupancy at GluN2B receptor in CD-1 mouse forebrain membranes assessed as reduction in [3H]Ro 25-6981 receptor labeling at 3 mg/kg, iv incubated for 5 mins by topcount micro scintillation counting method; type: functional

Chain of Voltage-gated inwardly rectifying potassium channel KCNH2 (Q12809 whole entry): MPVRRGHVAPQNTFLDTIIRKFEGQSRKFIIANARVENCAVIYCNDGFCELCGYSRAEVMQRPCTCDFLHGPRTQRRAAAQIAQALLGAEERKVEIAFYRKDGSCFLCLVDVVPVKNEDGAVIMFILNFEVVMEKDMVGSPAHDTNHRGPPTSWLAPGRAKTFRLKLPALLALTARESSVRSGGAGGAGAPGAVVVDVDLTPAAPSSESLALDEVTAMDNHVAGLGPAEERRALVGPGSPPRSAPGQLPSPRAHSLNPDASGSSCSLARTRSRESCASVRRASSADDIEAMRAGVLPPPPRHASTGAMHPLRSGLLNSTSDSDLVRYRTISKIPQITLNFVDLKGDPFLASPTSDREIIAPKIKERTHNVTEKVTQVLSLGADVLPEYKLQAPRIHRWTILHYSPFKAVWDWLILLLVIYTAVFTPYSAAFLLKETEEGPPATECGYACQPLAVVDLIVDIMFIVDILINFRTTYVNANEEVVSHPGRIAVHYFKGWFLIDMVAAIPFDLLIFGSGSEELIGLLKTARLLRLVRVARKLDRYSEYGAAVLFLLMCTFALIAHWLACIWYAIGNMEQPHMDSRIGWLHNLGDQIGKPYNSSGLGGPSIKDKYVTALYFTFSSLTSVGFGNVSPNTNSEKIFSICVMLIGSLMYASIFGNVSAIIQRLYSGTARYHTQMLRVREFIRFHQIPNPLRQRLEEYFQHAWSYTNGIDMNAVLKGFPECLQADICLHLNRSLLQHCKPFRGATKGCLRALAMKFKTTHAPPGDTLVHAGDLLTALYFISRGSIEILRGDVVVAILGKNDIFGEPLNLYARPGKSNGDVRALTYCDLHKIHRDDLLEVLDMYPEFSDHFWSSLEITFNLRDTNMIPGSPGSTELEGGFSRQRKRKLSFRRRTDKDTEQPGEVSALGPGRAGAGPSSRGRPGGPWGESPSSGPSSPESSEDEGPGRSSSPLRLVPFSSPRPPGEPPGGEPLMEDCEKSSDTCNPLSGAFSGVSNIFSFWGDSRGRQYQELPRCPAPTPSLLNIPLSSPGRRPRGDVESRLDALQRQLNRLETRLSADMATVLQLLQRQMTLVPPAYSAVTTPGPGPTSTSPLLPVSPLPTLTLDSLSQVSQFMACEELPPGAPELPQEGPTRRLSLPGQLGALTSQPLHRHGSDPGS
Chain of Glutamate receptor ionotropic, NMDA 2B (Rattus norvegicus, UniProt Q00960) (Q00960 whole entry): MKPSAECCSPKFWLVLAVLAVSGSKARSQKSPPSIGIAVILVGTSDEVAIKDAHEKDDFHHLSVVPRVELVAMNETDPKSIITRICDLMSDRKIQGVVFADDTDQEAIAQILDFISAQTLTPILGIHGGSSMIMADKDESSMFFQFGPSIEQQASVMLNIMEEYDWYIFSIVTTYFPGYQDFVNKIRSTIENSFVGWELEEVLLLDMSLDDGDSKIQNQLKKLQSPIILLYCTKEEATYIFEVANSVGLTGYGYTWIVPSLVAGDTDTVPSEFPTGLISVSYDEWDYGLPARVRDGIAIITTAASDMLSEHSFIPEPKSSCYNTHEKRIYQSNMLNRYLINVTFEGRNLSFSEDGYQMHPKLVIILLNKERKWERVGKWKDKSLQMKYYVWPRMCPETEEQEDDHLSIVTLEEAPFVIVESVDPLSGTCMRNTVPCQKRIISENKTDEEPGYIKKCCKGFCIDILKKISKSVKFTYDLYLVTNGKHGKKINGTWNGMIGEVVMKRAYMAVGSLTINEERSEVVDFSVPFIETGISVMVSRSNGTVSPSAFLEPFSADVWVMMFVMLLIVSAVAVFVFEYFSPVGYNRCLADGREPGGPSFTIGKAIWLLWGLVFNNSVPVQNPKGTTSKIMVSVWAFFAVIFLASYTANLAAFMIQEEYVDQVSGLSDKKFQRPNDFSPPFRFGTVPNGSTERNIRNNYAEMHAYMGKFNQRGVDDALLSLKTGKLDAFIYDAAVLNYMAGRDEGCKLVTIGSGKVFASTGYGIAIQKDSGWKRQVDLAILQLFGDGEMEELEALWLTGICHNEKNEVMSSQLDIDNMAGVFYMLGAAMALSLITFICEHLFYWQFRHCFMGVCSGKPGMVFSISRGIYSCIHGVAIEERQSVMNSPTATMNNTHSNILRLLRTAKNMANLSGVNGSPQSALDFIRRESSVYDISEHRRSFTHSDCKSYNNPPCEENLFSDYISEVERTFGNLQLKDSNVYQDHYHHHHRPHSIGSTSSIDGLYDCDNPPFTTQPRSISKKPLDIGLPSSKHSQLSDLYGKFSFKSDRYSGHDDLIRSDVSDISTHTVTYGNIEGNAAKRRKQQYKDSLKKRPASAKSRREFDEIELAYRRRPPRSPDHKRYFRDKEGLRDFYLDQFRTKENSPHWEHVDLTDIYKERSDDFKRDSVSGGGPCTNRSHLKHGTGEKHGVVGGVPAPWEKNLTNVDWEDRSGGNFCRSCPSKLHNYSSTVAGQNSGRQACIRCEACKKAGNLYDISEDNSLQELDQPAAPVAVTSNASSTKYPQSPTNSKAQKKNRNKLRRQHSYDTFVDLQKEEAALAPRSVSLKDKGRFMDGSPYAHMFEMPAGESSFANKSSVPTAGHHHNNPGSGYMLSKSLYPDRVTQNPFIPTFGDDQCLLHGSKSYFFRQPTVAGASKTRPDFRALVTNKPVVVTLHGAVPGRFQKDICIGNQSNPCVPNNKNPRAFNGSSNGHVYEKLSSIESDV
Chain of Glutamate receptor ionotropic, NMDA 2B (Homo sapiens, UniProt Q05586+Q13224) (Q13224 whole entry, one chain of several): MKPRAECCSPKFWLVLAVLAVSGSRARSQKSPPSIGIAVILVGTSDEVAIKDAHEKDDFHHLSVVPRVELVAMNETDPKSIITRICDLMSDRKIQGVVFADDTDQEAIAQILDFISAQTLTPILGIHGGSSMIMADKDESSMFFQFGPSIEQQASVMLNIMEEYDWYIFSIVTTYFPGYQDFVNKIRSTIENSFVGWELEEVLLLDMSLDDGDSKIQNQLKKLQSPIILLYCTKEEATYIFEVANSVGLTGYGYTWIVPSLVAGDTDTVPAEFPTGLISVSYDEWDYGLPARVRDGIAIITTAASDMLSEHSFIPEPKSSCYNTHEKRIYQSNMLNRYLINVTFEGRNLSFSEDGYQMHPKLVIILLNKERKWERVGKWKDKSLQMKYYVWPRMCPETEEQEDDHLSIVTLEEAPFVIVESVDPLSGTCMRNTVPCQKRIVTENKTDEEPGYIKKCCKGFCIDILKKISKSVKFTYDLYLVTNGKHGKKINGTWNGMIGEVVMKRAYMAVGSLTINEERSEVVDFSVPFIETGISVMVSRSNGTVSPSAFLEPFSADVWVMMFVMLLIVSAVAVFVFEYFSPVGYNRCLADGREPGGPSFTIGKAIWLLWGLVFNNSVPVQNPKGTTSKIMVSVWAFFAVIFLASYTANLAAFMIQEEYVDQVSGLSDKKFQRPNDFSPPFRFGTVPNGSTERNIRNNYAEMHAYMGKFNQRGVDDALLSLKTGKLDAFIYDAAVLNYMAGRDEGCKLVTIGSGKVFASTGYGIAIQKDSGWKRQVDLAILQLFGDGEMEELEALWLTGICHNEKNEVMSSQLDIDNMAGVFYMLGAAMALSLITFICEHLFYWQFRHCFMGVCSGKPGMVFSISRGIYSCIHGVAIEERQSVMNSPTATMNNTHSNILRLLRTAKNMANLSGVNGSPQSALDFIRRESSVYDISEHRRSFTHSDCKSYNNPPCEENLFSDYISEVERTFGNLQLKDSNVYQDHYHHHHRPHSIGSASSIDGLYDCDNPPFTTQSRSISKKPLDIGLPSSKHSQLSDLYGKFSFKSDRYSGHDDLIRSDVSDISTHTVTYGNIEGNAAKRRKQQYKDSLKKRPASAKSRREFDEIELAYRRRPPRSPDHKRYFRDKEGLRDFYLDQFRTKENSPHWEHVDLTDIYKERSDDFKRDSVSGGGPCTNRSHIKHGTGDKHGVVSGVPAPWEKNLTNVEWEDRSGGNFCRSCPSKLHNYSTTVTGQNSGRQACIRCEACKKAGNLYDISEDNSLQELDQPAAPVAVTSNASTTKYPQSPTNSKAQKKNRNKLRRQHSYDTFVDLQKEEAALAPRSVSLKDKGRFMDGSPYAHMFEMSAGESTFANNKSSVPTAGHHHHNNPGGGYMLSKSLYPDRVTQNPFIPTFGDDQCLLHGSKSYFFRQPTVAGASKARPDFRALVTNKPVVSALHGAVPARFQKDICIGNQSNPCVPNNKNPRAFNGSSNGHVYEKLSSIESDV

Structure (SMILES)	Occ (Mus musculus [1]) [%]	fraction unbound [2]	IC50 [3] [nM]	pKa [4]	Activity (Mus musculus [5])	concentration [6] [nM]	Occ (Mus musculus [7]) [%]	IC50 [8] [nM]	concentration [9] [nM]	fraction unbound [10]	Occ (Mus musculus [11]) [%]	Ki [12] [nM]	Activity (Mus musculus [13])	minimal effective dose (Mus musculus [13]; CD-1, iv, read-out: MED) [mg/kg]	concentration [14] [nM]	fraction unbound [15]	Occ (Mus musculus [16]) [%]
O=C1[C@H](N2CCC(c3ccc(O)cc3)CC2)CCN1Cc1ccc(F)cc1	75	0.11	4.2	6.8	Dose-dependent effect	340	60	620	150	0.12	95	1.4	Dose-dependent effect	0.56	70	0.1	
Cc1ccc(CN2CC[C@@H](N3CC[C@H](c4ccc(O)cc4)[C@@H](F)C3)C2=O)cc1								> 30000	710								87
